US10201558B2, “Compositions of selenoorganic compounds and methods of use thereof” (Alltech, Inc., priority 2014, dated 2019)

Columns and labels:
Format in all cases: cell-based, human
[1] = system: control KD and FOXO4KD IMR-32 cells; assay: Mitochondrial potential in control KD and FOXO4 knockdown IMR-32 cells; details: 75 ppb and 150 ppb, 6 hours
Protocol: (§1) IMR-32 cells were cultured on 12-well plates for 24 hours and then incubated with FOXO4 siRNA lentiviruses (SC-29650V, Santa Cruz) or control siRNA lentiviruses (sc-108080, Santa Cruz) in the presence of Polybrene (5 μg/ml, Santa Cruz) for 24 hours according to the manufacturer's protocol. These lentiviral siRNA-transfected cells were amplified in normal media for 3 days and then incubated with puromycin for 9-14 days to obtain the stable Control KD (stably transfected with the control siRNAs) and FOXO4KD (stably transfected with Foxo4 siRNAs) cells. These control and Foxo4 KD cells were subjected to cell survival, mitochondrial potential and RNA analysis.
The mitochondrial potential per cell in control lentiviral KD IMR-32 or IMR-32 FOXO4 knockdown (KD) cells was determined using the Bio-TeK Synergy HT Multi-Mode fluorescence microplate reader with the following modifications. To improve the attachment of IMR-32 cells to culture dishes, cell culture plates were precoated with 0.1% gelatin (Sigma, St. Louis, Mo.).
To reduce cell dislodgment, Mitotracker Orange and Hoechst 33342 fluorescent dyes (diluted in culture media) were directly added to each well after control or compound treatments were added. After dye incubation, cell culture media was carefully replaced with 1×PBS buffer for the quantitation analysis of fluorescence on the microplate reader. Eight samples per each treatment were examined for the above analysis, and the experiments were repeated at least five times. Data are presented as mean±sem of eight samples.
To exclude the possibility that unknown factors in sera may affect the action of Compound C in cultured IMR-32 cells, cells were cultured in serum-free media for 24 hours, treated with Compound C (diluted in serum-free media) for 6 hours, and then subjected to MT analysis. Data were normalized by the fluorescence intensities of stained cell nuclei. Mean±SEM, n=8. The * refers to a p value <0.05 when compared to the control lentiviral KD cells group (0 ppb).

[2] = system: G6PC; assay: Western blot of G6PC protein in IMR-32 cells; details: 150 ppb, 24 hours
Protocol: IMR-32 cells were seeded on 6-well plates and then treated with control and various compounds for 6 hours and 24 hours, as described above. After treatments, cells were rinsed with ice-cold PBS and lysed in ice-cold RIPA buffer containing complete proteinase and phosphatase inhibitors (Thermo-Fisher Scientific, Waltham, Mass.) on ice for 30 min Cell lysates were collected using a cell scraper and transfer pipette and then centrifuged at 12000×g for 30 min at 4° C. to remove the DNA pellet and obtain the protein extract. Protein levels in the supernatant of these cell lysates were determined using the Pierce Micro-BCA protein assay kit (Thermo Scientific-Piece Biotechnology, Rockford, Ill.) according to the manufacturer's protocol […]
Positive signals on the membrane blots were detected using Amersham's enhanced chemiluminescence (ECL) Western Blotting Prime Detection reagents (GE healthcare Lifescience, Pittsburgh, Pa.). Images of these luminescence signals on the membrane blots were captured using the LI-COR Odyssey Fc Image system (Lincoln, Nebr.). […] Protein band densities in the Western blots were determined using the Li—COR Image studio software or NIH ImageJ software, and then normalized by ACTB protein level in each sample. […]

[3] = system: MAPK14; assay: QRT-PCR of MAPK14 mRNA in control and FOXO4 KD IMR-32 cells; details: 24 hours
Protocol: as §1
Human IMR-32 cells were seeded on gelatinized 6-well (6.5×10^5 cells/well) or 24-well (1.3×10^5 cells/well) plates. Cells were treated with control (0 ppb) or various compounds for 6 hours or 24 hours. Total RNA from these cells was isolated using Trizol (Invitrogen) according to the manufacturer's protocol, and then incubated with DNase I to remove any potential contaminated genomic DNA. Then RNA samples were subjected to real-time PCR analysis using the Applied-Bioscience's RT kit and predesigned Taqman probes (Invitrogen), as described previously (Lan et al EMBO J 2003). The mRNA levels of UCP1, UCP2, UCP3, SLC25A27 (UCP4), SLC25A14 (UCP5), PSEN1, Nicastrin, GSK3B, MAPK11-14, PPARG, APOE, RCAN1, RCAN1.1, G6PC, INSR, IGF1R and FOXO4 were measured. Three to six samples were analyzed in each treatment group. Data were normalized by Actin B (ACTB) or Glyceraldehyde Phosphate Dehydrogenase (GAPDH) mRNA levels in each sample and are presented as mean±SEM of 3-6 samples.
Normal control cells and FOXO4KD cells were incubated with two doses of Compound C for 24 hours, and subjected to QRT-PCR analysis of the MAPK11-14 genes. The relative mRNA expression of all four MAPK genes in normal control IMR-32 cells was assessed. […] Data in Compound C-treated control and FOXO4 KD cells were normalized by their levels in control and FOXO4KD cells, respectively. Mean±SEM of indicated number of samples in the bar graphs. […]

SMILES: C[Se]C[C@H]1O[C@@H](n2cnc3c(N)ncnc32)C(O)C1O (stereo in doubt) [Compound C, 5′-deoxy-5′-methylselenoadenosine]
- MT potential ([1]; FOXO4KD cells, serum-containing media): no significant effect
- MT potential ([1]; FOXO4KD cells, serum-free media): no significant increase
- MT potential ([1]; normal control KD cells, serum-containing media): significantly enhanced
- MT potential ([1]; normal control KD cells, serum-free media): significantly stimulated
- G6Pc protein levels [2]: visibly increased
- increase of G6Pc protein expression levels ([2]; quantitative analysis): ~3 fold
- MAPK14 mRNA levels ([3]; FOXO4KD cells, 75 ppb and 150 ppb): none of the mRNA levels of the four MAPK genes in FOXO4KD cells were significantly altered
- MAPK14 mRNA levels ([3]; control KD cells, 75 ppb): trend towards decreased
- MAPK14 mRNA levels ([3]; control KD cells, 150 ppb): significantly decreased
